Measured values reported in ChEMBL document CHEMBL5346971, “Discovery of the First Irreversible HDAC6 Isoform Selective Inhibitor with Potent Anti-Multiple Myeloma Activity” (J Med Chem, 2023).

Legend:
[1] = Intrinsic clearance in human liver microsomes in presence of NADPH by LC-MS/MS analysis; assay type: ADME, Microsome; conditions: read-out: CLH
[2] = Metabolic stability of the compound in rat liver microsomes assessed as parent compound remaining measured after 60 mins in presence of NADPH by LC-MS/MS analysis; assay type: ADME, Microsome; conditions: read-out: Stability
[3] = molecular target: Histone deacetylase 4 (Homo sapiens, UniProt P56524); test: (§1) Inhibition of N-terminal GST-tagged/C-terminal His-tagged human HDAC4 (627 to 1084 residues) expressed in baculovirus-infected Sf9 cells using Boc-Lys(trifluoroacety1)-AMC as substrate preincubated with enzyme for 1 hr followed by substrate addition and measured after 30 mins by fluorescence based analysis
Histone deacetylase 4, sequence (P56524 whole entry, the tested form may be a part): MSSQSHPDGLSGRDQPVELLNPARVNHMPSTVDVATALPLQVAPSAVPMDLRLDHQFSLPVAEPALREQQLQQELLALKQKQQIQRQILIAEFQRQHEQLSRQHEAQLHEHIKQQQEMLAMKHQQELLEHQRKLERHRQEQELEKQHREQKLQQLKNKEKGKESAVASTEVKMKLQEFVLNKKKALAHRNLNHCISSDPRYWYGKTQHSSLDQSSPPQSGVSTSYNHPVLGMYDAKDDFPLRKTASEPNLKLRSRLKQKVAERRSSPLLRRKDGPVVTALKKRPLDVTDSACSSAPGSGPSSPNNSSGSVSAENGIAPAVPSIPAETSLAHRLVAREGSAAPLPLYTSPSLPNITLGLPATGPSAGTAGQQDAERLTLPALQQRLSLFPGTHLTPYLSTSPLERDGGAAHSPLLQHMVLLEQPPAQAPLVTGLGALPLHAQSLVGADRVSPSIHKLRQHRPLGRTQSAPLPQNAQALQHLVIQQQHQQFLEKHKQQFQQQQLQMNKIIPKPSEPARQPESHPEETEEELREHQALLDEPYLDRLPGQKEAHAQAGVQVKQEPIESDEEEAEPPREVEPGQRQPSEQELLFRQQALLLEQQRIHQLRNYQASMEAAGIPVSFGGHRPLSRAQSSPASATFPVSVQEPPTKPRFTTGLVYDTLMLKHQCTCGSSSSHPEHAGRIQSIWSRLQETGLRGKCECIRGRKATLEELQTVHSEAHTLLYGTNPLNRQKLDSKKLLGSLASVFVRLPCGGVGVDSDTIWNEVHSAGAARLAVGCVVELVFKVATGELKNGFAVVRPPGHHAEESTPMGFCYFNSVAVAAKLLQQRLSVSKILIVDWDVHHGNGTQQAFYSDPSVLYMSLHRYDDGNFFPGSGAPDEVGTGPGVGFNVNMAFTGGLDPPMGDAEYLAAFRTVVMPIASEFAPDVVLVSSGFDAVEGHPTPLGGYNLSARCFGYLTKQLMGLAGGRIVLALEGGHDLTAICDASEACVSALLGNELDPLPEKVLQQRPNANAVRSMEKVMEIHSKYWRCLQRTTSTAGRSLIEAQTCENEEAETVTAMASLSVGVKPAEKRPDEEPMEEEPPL

[4] = Effect on HDAC6 protein expression in human A549 cells assessed as change in HDAC6 protein expression at 0.4 uM incubated for 5 hrs followed by drug wash-out for 24 hrs by western blot analysis relative to control; assay type: functional
[5] = molecular target: Histone deacetylase 1 (Homo sapiens, UniProt Q13547); test: Inhibition of C-terminal His/FLAG-tagged human full length recombinant HDAC1 (1 to 482 residues) expressed in Sf9 cells using Boc-Lys(acetyI)-AMC as substrate preincubated with enzyme for 1 hr followed by substrate addition and measured after 30 mins by fluorescence based analysis
Histone deacetylase 1, sequence (Q13547 whole entry, the tested form may be a part): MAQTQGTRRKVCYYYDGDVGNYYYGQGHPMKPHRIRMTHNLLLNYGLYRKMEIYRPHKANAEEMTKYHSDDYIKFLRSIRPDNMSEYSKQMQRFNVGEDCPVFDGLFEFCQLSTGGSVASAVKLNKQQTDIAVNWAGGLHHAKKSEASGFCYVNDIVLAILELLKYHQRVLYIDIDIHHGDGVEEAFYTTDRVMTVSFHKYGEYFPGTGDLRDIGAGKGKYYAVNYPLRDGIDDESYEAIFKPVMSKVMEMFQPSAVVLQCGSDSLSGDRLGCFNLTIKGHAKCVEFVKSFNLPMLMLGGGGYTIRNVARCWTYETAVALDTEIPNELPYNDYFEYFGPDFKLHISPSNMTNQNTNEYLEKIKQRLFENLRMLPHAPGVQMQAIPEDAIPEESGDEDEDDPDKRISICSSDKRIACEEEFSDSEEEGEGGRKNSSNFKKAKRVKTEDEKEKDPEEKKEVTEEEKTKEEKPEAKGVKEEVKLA

[6] = Metabolic stability of the compound in human liver microsomes assessed as parent compound remaining measured after 60 mins in presence of NADPH by LC-MS/MS analysis; assay type: ADME, Microsome; conditions: read-out: Stability
[7] = Half-life in rat liver microsomes in presence of NADPH by LC-MS/MS analysis; assay type: ADME, Microsome
[8] = Metabolic stability of the compound in mouse liver microsomes assessed as parent compound remaining measured after 60 mins in presence of NADPH by LC-MS/MS analysis; assay type: ADME, Microsome; conditions: read-out: Stability
[9] = molecular target: Histone deacetylase 5 (Homo sapiens, UniProt Q9UQL6); test: as §1, with “C-terminal” for “N-terminal GST-tagged/C-terminal”, “recombinant HDAC5 catalytic domain (656” for “HDAC4 (627”, “1122” for “1084”
Histone deacetylase 5, sequence (Q9UQL6 whole entry, the tested form may be a part): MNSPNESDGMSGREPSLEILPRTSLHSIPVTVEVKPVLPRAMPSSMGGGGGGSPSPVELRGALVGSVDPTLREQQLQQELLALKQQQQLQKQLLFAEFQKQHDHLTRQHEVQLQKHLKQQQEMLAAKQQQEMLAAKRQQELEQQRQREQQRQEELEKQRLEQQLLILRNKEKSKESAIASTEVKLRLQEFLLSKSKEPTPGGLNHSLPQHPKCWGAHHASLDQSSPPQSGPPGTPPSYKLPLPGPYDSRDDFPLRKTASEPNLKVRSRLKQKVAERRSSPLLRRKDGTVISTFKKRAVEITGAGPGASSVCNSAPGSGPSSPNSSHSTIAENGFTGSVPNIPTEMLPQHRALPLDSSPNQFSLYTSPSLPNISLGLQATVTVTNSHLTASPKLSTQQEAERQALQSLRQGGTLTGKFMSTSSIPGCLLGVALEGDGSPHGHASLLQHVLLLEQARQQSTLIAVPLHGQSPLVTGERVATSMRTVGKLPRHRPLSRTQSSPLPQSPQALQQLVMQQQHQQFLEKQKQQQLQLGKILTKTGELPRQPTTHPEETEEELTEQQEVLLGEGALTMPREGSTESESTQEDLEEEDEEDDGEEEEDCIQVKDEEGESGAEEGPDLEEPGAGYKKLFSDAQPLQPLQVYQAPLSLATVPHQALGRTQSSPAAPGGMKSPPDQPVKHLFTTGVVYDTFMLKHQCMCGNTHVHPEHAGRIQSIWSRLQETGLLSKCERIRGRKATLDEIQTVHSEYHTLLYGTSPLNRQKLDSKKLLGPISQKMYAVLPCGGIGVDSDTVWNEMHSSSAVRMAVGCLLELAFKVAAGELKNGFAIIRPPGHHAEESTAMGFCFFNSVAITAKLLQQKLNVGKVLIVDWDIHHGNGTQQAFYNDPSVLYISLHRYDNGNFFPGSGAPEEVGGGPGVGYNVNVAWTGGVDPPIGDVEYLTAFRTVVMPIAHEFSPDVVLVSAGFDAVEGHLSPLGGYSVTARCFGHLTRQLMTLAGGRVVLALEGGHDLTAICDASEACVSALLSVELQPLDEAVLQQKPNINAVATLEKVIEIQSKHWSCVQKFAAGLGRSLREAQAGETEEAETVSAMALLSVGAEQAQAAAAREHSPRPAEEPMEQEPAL

[10] = molecular target: T1, Histone deacetylase 7 (Homo sapiens, UniProt Q8WUI4); test: Inhibition of N-terminal GST-tagged human HDAC7 (518 to end residues) expressed in baculovirus-infected Sf9 cells using Boc-Lys(trifluoroacety1)-AMC as substrate preincubated with enzyme for 1 hr followed by substrate addition and measured after 30 mins by fluorescence based analysis
T1 sequence (Q8WUI4 whole entry): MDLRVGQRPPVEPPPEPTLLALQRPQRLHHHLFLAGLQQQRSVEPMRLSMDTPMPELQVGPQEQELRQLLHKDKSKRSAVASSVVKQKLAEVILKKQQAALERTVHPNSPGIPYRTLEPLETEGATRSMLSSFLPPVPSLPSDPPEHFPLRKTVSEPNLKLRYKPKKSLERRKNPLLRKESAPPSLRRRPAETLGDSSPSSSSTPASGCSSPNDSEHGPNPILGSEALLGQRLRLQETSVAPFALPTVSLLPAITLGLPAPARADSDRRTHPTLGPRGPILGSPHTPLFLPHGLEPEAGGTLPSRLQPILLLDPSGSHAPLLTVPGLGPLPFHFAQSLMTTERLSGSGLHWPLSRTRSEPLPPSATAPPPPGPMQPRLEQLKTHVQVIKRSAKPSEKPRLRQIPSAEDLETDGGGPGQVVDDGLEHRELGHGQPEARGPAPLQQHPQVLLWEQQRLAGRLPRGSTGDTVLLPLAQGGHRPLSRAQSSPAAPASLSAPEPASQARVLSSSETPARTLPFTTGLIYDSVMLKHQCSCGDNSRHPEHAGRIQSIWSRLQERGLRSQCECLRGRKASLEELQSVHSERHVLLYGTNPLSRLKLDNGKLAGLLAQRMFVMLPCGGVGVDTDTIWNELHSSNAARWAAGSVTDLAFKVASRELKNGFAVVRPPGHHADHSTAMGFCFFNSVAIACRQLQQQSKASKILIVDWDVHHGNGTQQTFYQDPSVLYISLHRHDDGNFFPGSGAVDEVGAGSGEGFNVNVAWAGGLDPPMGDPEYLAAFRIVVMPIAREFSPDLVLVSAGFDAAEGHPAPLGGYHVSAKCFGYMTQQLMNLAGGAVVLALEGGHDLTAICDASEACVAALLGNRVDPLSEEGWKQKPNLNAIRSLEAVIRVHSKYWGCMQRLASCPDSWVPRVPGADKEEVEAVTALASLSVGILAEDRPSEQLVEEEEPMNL

[11] = Intrinsic clearance in mouse liver microsomes in presence of NADPH by LC-MS/MS analysis; assay type: ADME, Microsome; conditions: read-out: CLH

CLint scaled [1]: 230 mL/min/kg
remaining at 1 h [2]: 0.6%
IC50 [3]: > 40 µM
IC50 [5]: 4.8 µM
remaining at 1 h [6]: < 0.33%
half-life [7]: 9.2 min
remaining at 1 h [8]: < 0.35%
IC50 [9]: > 40 µM
IC50 [10]: > 40 µM
CLint scaled [11]: 2990 mL/min/kg
Compound: O=C(NO)c1ccc(COc2no[n+]([O-])c2S(=O)(=O)c2ccccc2)cc1
fold change (FC) [4]: 1.3
